Assay results: patent US20250255850A1, “PHARMACEUTICAL COMPOSITIONS FOR TREATING NEUROLOGICAL CONDITIONS” (YISSUM RESEARCH DEVELOPMENT COMPANY OF THE HEBREW …, priority 2021, published 2025)

Assays:
SHANK3 mutant mice [1] = assay: Open field test, SHANK3 mutant mice; assay type: in vivo, mouse; conditions: 7-NI i.p. 20, 50 and 80 mg/kg
Description: Open field test: Mice were tested in an open field (45×45 cm) virtually divided into central and peripheral regions. Animal activity was recorded by video tracking (Noldus Ethovision). Each mouse was allowed to explore the apparatus for 5 minutes. The distance traveled, the number of rears and revolutions, the number of grooming bouts and cumulative grooming time, the number of head shaking or twitches, the number of entries in the center, and the time spent in the central and peripheral regions were recorded. Measures were recorded in 5-minute intervals.
(§1) A dose dependent study was conducted to determine the optimal dose that may produce the greatest effect on mice behavior. The SHANK3 mutant mice (n=5 for each group) were treated with the 7-NI (i.p) at doses of 0, 20, 50, and 80 mg/kg. This was followed by a set of behavioral tests to assess the proper dose of 7-NI that can reverse the autistic phenotypes observed in this model.
Initially, an open field test was performed to examine the general motor activity levels in mice that is measured by the distance travelled and velocity.
A 100 μL injection of the poly(sebacic acid-ricinoleic acid) (PSARA) gel formulation with 7NI was used to evaluate its effect in reversing ASD-like behaviors in SHANK3 mice. The motor activity, social interaction, anxiety and interest behaviors were examined using the behavior analyses as described herein.

SHANK3 mutant mice [2] = assay: Three-chamber sociability test, SHANK3 mutant mice; assay type: in vivo, mouse
Description: Three-chambered sociability test (see, FIG. 4B): Sociability and preference for social novelty and social recognition were tested in a three-chambered apparatus. The subjected mouse was first placed in the central, neutral chamber and allowed to explore for 10 minutes with all the doors closed. Next, doors were opened and the mouse was allowed to freely explore the other two empty chambers (1 and 2) for an additional 10 minutes. Lack of side preference was confirmed during this habituation.
Two cylindrical wire cages were placed, one in chamber 1 and the other in chamber 2. For the sociability test, the test animal was introduced to the middle chamber and allowed to adjust for 5 minutes. Then, an unfamiliar mouse was introduced into a wire cage in one of the side-chambers, and the other side-chamber remained empty. The time spent by the test mouse exploring the wire cage with an unfamiliar mouse inside was recorded for 5 minutes.
Next, to examine social memory, novel mice is introduced to the empty cage and the tested mice is examined whether they are interested in the novel mice compared to the familiar.
as §1
A three-chamber sociability test was conducted to evaluate the interest of mice in engaging in social interaction with a stranger mouse, as described hereinabove and shown in FIG. 4B. […] Comparing to the 50 mg/kg, although statistically the difference is not significant, the 80 mg/kg-treated group spent more time interacting with the stranger mouse.
A 100 μL injection of the poly(sebacic acid-ricinoleic acid) (PSARA) gel formulation with 7NI was used to evaluate its effect in reversing ASD-like behaviors in SHANK3 mice. […]

SH-SY5Y cells [3] = assay: Clonogenic survival assay; assay type: cell-based, human; conditions: 7-NI 100 μM for 24 hours or siRNA-nNOS, 14 days
Description: Cells were seeded into 6-well plates at concentrations of 500/well or 1000/well in triplicates. After 24 hours, 7-NI was added (100 μM for 24 hours), or cells were transiently transfected with siRNA-nNOS, as described above, before changing to serum-containing medium. Cells were incubated for 14 days to form visible colonies. Colonies were stained with crystal violet, washed with PBS, air-dried, and imaged. The colonies were visualized using ImageJ software. Cell colonies of greater than 50 cells were identified and counted (Lopez-Rivera et al., 2014).

SH-SY5Y cells [4] = assay: Western blot of 3-nitrotyrosine, mTOR signaling pathway components and synaptophysin; assay type: cell-based, human
Description: Human NB SH-SY5Y cells were obtained from the American Type Culture Collection (ATCC) and maintained in Dulbecco's modified Eagle's medium (DMEM) and Ham's F-12 (1:1) supplemented with 10% fetal bovine serum, 2 mM L-glutamine, and 100 U/ml penicillin-G/100 […] streptomycin in a humidified atmosphere (37° C., 5% CO2). Cells were plated onto 25 cm^2 and 75 cm^2 plates at a density of 7.0×10^5 and 2.1×10^6 cells/cm^2 respectively for Western blotting (WB) and 1×10^5 for immunofluorescence. The SH-SY5Y cells were treated with 100 μM 7-nitroindazole (7-NI) for 24 hours (Fujibayashi et al., 2015). This concentration was confirmed in a dose-response experiment (FIG. 14A) using an MTT viability assay.
SH-SY5Y cells were plated in 6 well plates, as well as on 22 mm^2 coverslips at a density of 6.0×10^4 cells/cm^2 and transfected with 20 nM nNOS siRNA (NOSIHSS1072, Invitrogen) for 24 hours, with the use of Lipofectamine RNAi MAX (56530, Invitrogen) according to the manufacturer's protocol. Then cells were washed with phosphate-buffered saline (PBS) and harvested for WB and fixed for immunofluorescence (Fujibayashi et al., 2015).
Cells were lysed in ice-cold RIPA buffer containing 50 mM Tris-HCl, 1% Nonidet P-40, 0.25% sodium deoxycholate, 150 mM NaCl, protease-, and phosphatase inhibitor cocktails, pH 7.4. After sonication, the lysates were centrifuged at 17,000 g for 30 minutes at 4° C., and the supernatant was collected. The protein concentrations were determined with the BCA protein assay. Proteins were resolved by SDS-PAGE, transferred to a PVDF membrane, and probed with the following antibodies: anti-pMTOR (rabbit, diluted 1:1000), anti-mTOR (rabbit, diluted 1:1000), anti-TSC2 (rabbit, diluted 1:1000), anti-nNOS (rabbit, diled 1:1000), anti-pAKT (rabbit, diluted 1:1000), anti-AKT (rabbit, diluted 1:1000), anti-pRPS6 (rabbit, diluted 1:1000), anti-RPS6 (mouse, diluted 1:1000), anti-synaptophysin (mouse, diluted 1:1000), anti-β-actin (rabbit, diluted 1:1000), anti-3-Nitrotyrosine (rabbit, diluted 1:5000) from Abcam. All primary antibodies, except anti-3-Nitrosine, were purchased from Cell Signaling Technology. The blots were then visualized using an enhanced chemiluminescence (ECL) system (Choi et al., 2018).

[5] = 7-NI 100 μM 24 hours or nNOS silencing

SMILES: O=[N+]([O-])c1cccc2cn[nH]c12 [7-NI, 7-nitroindazole]
- motor activity (distance travelled and velocity, open field) (SHANK3 mutant mice [1]): no significant difference in the motor activity
- time interacting with the stranger mouse (first session) (SHANK3 mutant mice [2]; 7-NI 80 mg/kg compared to 20 mg/kg): spent significantly more time interacting with the stranger mouse
- time interacting with the novel mouse (S2) (second session) (SHANK3 mutant mice [2]; 7-NI 80 mg/kg compared to lower doses): spent more time interacting with the novel mouse (S2)
- dose yielding the greatest reversal of the autistic phenotypes (SHANK3 mutant mice [2]; doses 0, 20, 50, 80 mg/kg i.p.): 80 mg/kg
- number of colonies (clonogenic survival) (SH-SY5Y cells [3]): decrease in the number of colonies
- levels of synaptophysin (Syp, Western blot) (SH-SY5Y cells [4]; 7-NI 100 μM 24 hours or genetic ablation of nNOS): significantly decreased the levels of synaptophysin
- 3-Ntyr levels (Western blot) (SH-SY5Y cells [4]; 7-NI 100 μM 24 hours or nNOS knockdown): halved
- levels of TSC-2 (Western blot) (SH-SY5Y cells [4]; [5]): significant increase in the levels of TSC-2
- phosphorylation of RPS6 (Western blot) (SH-SY5Y cells [4]; [5]): reduced
- phosphorylation of mTOR (Western blot) (SH-SY5Y cells [4]; [5]): decrease in phosphorylation of mTOR
- phosphorylation of protein kinase-B (AKT) (Western blot) (SH-SY5Y cells [4]; [5]): reduced
